Laboratory results from ChEMBL document CHEMBL3885881, “DrugMatrix”.

Species: Rattus norvegicus
Assay type: toxicity, organism-based, Sprague-Dawley
Settings: in vivo, po, route oral GAVAGE, […]; for ABSOLUTE EOSINOPHIL / ABSOLUTE LYMPHOCYTE / ABSOLUTE MONOCYTE / ABSOLUTE SEGMENTED NEUTROPHIL / BASOPHIL / EOSINOPHIL / ERYTHROCYTE COUNT / HEMATOCRIT / HEMOGLOBIN / LEUKOCYTE COUNT / LYMPHOCYTE / MEAN CORPUSCULAR HEMOGLOBIN / MEAN CORPUSCULAR HEMOGLOBIN CONCENTRATION / MEAN CORPUSCULAR VOLUME / MONOCYTE / NEUTROPHIL / NUCLEATED RED BLOOD CELLS / PLATELET COUNT: tissue Blood; for ALANINE AMINOTRANSFERASE / ALKALINE PHOSPHATASE / ASPARTATE AMINOTRANSFERASE / BLOOD UREA NITROGEN / CARBON DIOXIDE / CHLORIDE / CHOLESTEROL / CREATINE PHOSPHOKINASE / CREATININE / GLUCOSE / LACTATE DEHYDROGENASE / LIPASE / PHOSPHORUS / POTASSIUM / SODIUM / TOTAL BILIRUBIN / TOTAL PROTEIN / URIC ACID: tissue Plasma
[1] = 100 mg/kg, 24 h, dose level Low, time 1 day
[2] = 700 mg/kg, 6 h, dose level High, time 0.25 day
[3] = 700 mg/kg, 24 h, dose level High, time 1 day

Description: DrugMatrix - Regimen: Single

Structure (SMILES): Cc1ccc(C)c(OCCCC(C)(C)C(=O)O)c1 [GEMFIBROZIL]
- ABSOLUTE EOSINOPHIL [1]: 126.33 CELLS/uL
- ABSOLUTE LYMPHOCYTE [1]: 13618.33 CELLS/uL
- ABSOLUTE MONOCYTE [1]: 235.33 CELLS/uL
- ABSOLUTE SEGMENTED NEUTROPHIL [1]: 1320 CELLS/uL
- BASOPHIL [1]: 0%
- EOSINOPHIL [1]: 0.83%
- ERYTHROCYTE COUNT [1]: 5.54 x10E6/uL
- HEMATOCRIT [1]: 35.43%
- HEMOGLOBIN [1]: 13.82 G/DL
- LEUKOCYTE COUNT [1]: 15.3 x10E3/uL
- LYMPHOCYTE [1]: 89.17%
- MEAN CORPUSCULAR HEMOGLOBIN [1]: 25.02 pg
- MEAN CORPUSCULAR HEMOGLOBIN CONCENTRATION [1]: 39 G/DL
- MEAN CORPUSCULAR VOLUME [1]: 64.12 fL
- MONOCYTE [1]: 1.5%
- NEUTROPHIL [1]: 8.5%
- NUCLEATED RED BLOOD CELLS [1]: 0 /100WBC
- PLATELET COUNT [1]: 879.83 x10E3/uL
- ALANINE AMINOTRANSFERASE [1]: 82.17 u/L
- ALKALINE PHOSPHATASE [1]: 348.5 u/L
- ASPARTATE AMINOTRANSFERASE [1]: 88.67 u/L
- BLOOD UREA NITROGEN [1]: 11.17 mg/dL
- CARBON DIOXIDE [1]: 30.17 mmol/L
- CHLORIDE [1]: 101.33 MEQ/L
- CHOLESTEROL [1]: 57.17 mg/dL
- CREATINE PHOSPHOKINASE [1]: 237 u/L
- CREATININE [1]: 0.18 mg/dL
- GLUCOSE [1]: 138.33 mg/dL
- LACTATE DEHYDROGENASE [1]: 130.5 u/L
- LIPASE [1]: 8.67 u/L
- PHOSPHORUS [1]: 9.87 mg/dL
- POTASSIUM [1]: 6.21 MEQ/L
- SODIUM [1]: 146.35 MEQ/L
- TOTAL BILIRUBIN [1]: 0.15 mg/dL
- TOTAL PROTEIN [1]: 5.83 G/DL
- URIC ACID [1]: 1.02 mg/dL
- ABSOLUTE EOSINOPHIL [2]: 0 CELLS/uL
- ABSOLUTE LYMPHOCYTE [2]: 11512.83 CELLS/uL
- ABSOLUTE MONOCYTE [2]: 281.33 CELLS/uL
- ABSOLUTE SEGMENTED NEUTROPHIL [2]: 1289.17 CELLS/uL
- BASOPHIL [2]: 0%
- EOSINOPHIL [2]: 0%
- ERYTHROCYTE COUNT [2]: 5.72 x10E6/uL
- HEMATOCRIT [2]: 36.68%
- HEMOGLOBIN [2]: 14.32 G/DL
- LEUKOCYTE COUNT [2]: 13.08 x10E3/uL
- LYMPHOCYTE [2]: 87.5%
- MEAN CORPUSCULAR HEMOGLOBIN [2]: 25.02 pg
- MEAN CORPUSCULAR HEMOGLOBIN CONCENTRATION [2]: 39.02 G/DL
- MEAN CORPUSCULAR VOLUME [2]: 64.17 fL
- MONOCYTE [2]: 2.33%
- NEUTROPHIL [2]: 10.17%
- NUCLEATED RED BLOOD CELLS [2]: 0 /100WBC
- PLATELET COUNT [2]: 1058.5 x10E3/uL
- ALANINE AMINOTRANSFERASE [2]: 68.17 u/L
- ALKALINE PHOSPHATASE [2]: 373.33 u/L
- ASPARTATE AMINOTRANSFERASE [2]: 85.5 u/L
- BLOOD UREA NITROGEN [2]: 9.83 mg/dL
- CARBON DIOXIDE [2]: 30.5 mmol/L
- CHLORIDE [2]: 95.17 MEQ/L
- CHOLESTEROL [2]: 81.83 mg/dL
- CREATINE PHOSPHOKINASE [2]: 224.83 u/L
- CREATININE [2]: 0.16 mg/dL
- GLUCOSE [2]: 138.17 mg/dL
- LACTATE DEHYDROGENASE [2]: 127.17 u/L
- LIPASE [2]: 12.33 u/L
- PHOSPHORUS [2]: 11.42 mg/dL
- POTASSIUM [2]: 6.25 MEQ/L
- SODIUM [2]: 143.7 MEQ/L
- TOTAL BILIRUBIN [2]: 0.68 mg/dL
- TOTAL PROTEIN [2]: 6.2 G/DL
- URIC ACID [2]: 1.3 mg/dL
- ABSOLUTE EOSINOPHIL [3]: 30.33 CELLS/uL
- ABSOLUTE LYMPHOCYTE [3]: 15144 CELLS/uL
- ABSOLUTE MONOCYTE [3]: 266 CELLS/uL
- ABSOLUTE SEGMENTED NEUTROPHIL [3]: 893 CELLS/uL
- BASOPHIL [3]: 0%
- EOSINOPHIL [3]: 0.17%
- ERYTHROCYTE COUNT [3]: 5.34 x10E6/uL
- HEMATOCRIT [3]: 34.55%
- HEMOGLOBIN [3]: 13.67 G/DL
- LEUKOCYTE COUNT [3]: 16.33 x10E3/uL
- LYMPHOCYTE [3]: 92.33%
- MEAN CORPUSCULAR HEMOGLOBIN [3]: 25.58 pg
- MEAN CORPUSCULAR HEMOGLOBIN CONCENTRATION [3]: 39.58 G/DL
- MEAN CORPUSCULAR VOLUME [3]: 64.72 fL
- MONOCYTE [3]: 1.67%
- NEUTROPHIL [3]: 5.83%
- NUCLEATED RED BLOOD CELLS [3]: 0.33 /100WBC
- PLATELET COUNT [3]: 1050.67 x10E3/uL
- ALANINE AMINOTRANSFERASE [3]: 55.83 u/L
- ALKALINE PHOSPHATASE [3]: 484.5 u/L
- ASPARTATE AMINOTRANSFERASE [3]: 65.17 u/L
- BLOOD UREA NITROGEN [3]: 10.67 mg/dL
- CARBON DIOXIDE [3]: 28 mmol/L
- CHLORIDE [3]: 100 MEQ/L
- CHOLESTEROL [3]: 71 mg/dL
- CREATINE PHOSPHOKINASE [3]: 320.67 u/L
- CREATININE [3]: 0.21 mg/dL
- GLUCOSE [3]: 140.83 mg/dL
- LACTATE DEHYDROGENASE [3]: 120.67 u/L
- LIPASE [3]: 9.67 u/L
- PHOSPHORUS [3]: 10.38 mg/dL
- POTASSIUM [3]: 5.59 MEQ/L
- SODIUM [3]: 146.73 MEQ/L
- TOTAL BILIRUBIN [3]: 0.25 mg/dL
- TOTAL PROTEIN [3]: 5.97 G/DL
- URIC ACID [3]: 1.07 mg/dL
